Laboratory results: US20050054620A1, “Paricalcitol as a chemotherapeutic agent” (priority 2003, published 2005)

How the values were obtained:
[1] = tested on: HT-29 cells; assay: Western blot of cell lysates; assay type: cell-based, human; conditions: 10^−7M, 72 hrs
Experimental: Western blot analysis was used to determine the levels of proteins involved in cell cycle and differentiation. […] After centrifugation at 15,000×g for 15 min at 4° C., the suspension was collected. Protein concentrations were quantitated using the Bio-Rad assay (Bio-Rad Labolatories, Hercules, Calif.). […] The blots were developed using the Supersignal West Pico Chemiluminescent Substrate Kit (Pierce, Rockford, Ill.). In FIG. 4B, HT-29 cells were exposed to either paricalcitol (10^−7M) or 1,25(OH)2D3(10^−7M). Cell lysates were prepared after 72 hrs of culture and analyzed by Western blot. The Western blot was probed sequentially with antibodies for p27KIP1, p21WAF1, cyclin D1, c-myc and E-Cadherin (antibodies from Santa Cruz Biotechnology) as described in Example II. Control cells were treated with vehicle alone. The quantity of protein was normalized by comparison to the amount of GAPDH. In FIG. 4C, HT-29 and SW837 cells were cultured with either paricalcitol (10^−7M) or 1,25(OH)2D3 (10^−7M) for 72 hrs. Cell lysates were prepared and analyzed by Western blot which was probed sequentially with antibodies to COX-1 and COX-2 (Santa Cruz Biotechnology). Control cells were treated with vehicle alone. The amount of protein was normalized by comparison to the quantity of GAPDH.

[2] = tested on: 24-hydroxylase mRNA; assay: RT-PCR of 24-hydroxylase mRNA in HT-29 cells; assay type: cell-based, human; conditions: 10^−7M
Experimental: In FIG. 6B, HT-29 colon cancer cells were treated with paricalcitol (10^−7M) for 0, 6, 12 or 24 hrs and RNA was harvested. Expression of 24 hydroxylase mRNA was analysed by RT-PCR. The amounts of mRNA were normalized by comparison to 18S RNA. […] For the PCR analysis, RNA extraction and reverse transcription were done by TRIzole (Invitrogen, Carlsbad, Calif.) and reverse transcriptase (Promega, Madison, Wis.). A twenty-microliter volume of cDNA was prepared from 1 μg of RNA. cDNAs were amplified by PCR with specific primers for 24-hydroxylase and 18S. The cycle number was 25 for 18S and 32 for 24-hydroxylase. PCR product was separated on a 2% agarose gel, stained with ethidium bromide, and photographed.

[3] = tested on: mononuclear bone marrow cells from VDR knock-out (VDR-KO) mice; assay: Colony-forming assay in methylcellulose, VDR knock-out mice; assay type: cell-based; conditions: 10^−8 M
Excerpt: In FIG. 6D, colony formation by mononuclear bone marrow cells from VDR knock-out (VDR-KO) and wild type (WT) mice is shown. Mononuclear cells were obtained from femoral bone marrow plugs and grown in methylcellulose culture media with either paricalcitol (10^−8M) or diluant. Colonies were counted on day 10 of culture. The number of total colonies (average) were 87 (control) and 66 (paricalcitol 10^−8M) in wild type mice, and 110 (control) and 122 (paricalcitol 10^−8M) in VDR-KO mice. The percentage of macrophage, granulocyte and mixed granulocyte/macrophage colonies are shown. Triplicate wells for each mouse and a total of three KO and three WT mice were studied. G, granulocyte colonies; G/M mixed granulocyte/macrophage colonies; M, macrophage colonies.
The VDR KO Mouse and Colony-Forming Assay was performed as follows. VDR KO mice were generated and genotypes were determined by Southern Blot Analysis as described previously (O'Kelly et al., supra, 2002). For experiments using VDR KO mice, their wild-type (WT) littermates were used as controls. Mice were killed by cervical neck dislocation. Bone marrow was flushed out of isolated femurs with (a-MEM; Gibco BRL, Grand Island, N.Y., USA) including 10% FCS using a 26-gauge needle. Isolated spleens were injected with DMEM (Gibco BRL) plus 10% FCS and crushed with forceps to release cells. Mononuclear cells from bone marrow or spleen were separated by Ficoll-Hypaque density centrifugation (Amersham Pharmacia, Uppsala, Sweden). Resuspended mononuclear bone marrow cells (2×10^4 cells/ml) and growth factors were added 1:10 to methylcellulose medium M3234 (StemCell Technologies Inc., Vancouver, British Columbia, Canada) to yield a final concentration of 1% methylcellulose, 30% FCS, 1% BSA, 10^-4M mercaptoethanol, and 2 mM L-glutamine as described previously (19). Cells were plated in six-well plates in a volume of 1 ml and incubated at 37° C. in a humidified atmosphere containing 5% CO2. Colonies were counted after 2 weeks. Colony type was established by morphology; and to ensure accurate determination, representative colonies were plucked from the plates, centrifuged onto slides, stained with Wright-Giemsa stain and examined by light microscopy.

[4] = tested on: PML-RARα fusion protein; assay: Western blot for PML-RARα in PR9 cells with zinc; assay type: cell-based, human
Experimental: (A) NB-4 myeloid leukemia cell lines were treated with paricalcitol (0.1 μM) and/or arsenic trioxide (0.6 μM) for 3 days. Control cells were treated with vehicle alone. Cell lysates were made and used for Western blot which was probed sequentially with antibodies to RARA to detect the fusion protein PML-RARα. (B) U937 cells were stably transfected with either the control MT vector (U937-PMT) or the PML-RARα cDNA under the control of the Zn2^+-inducible murine metallothionein 1 promoter (PR9). Cells were treated either with (+) or without (−) Zn for 2 days. Paricalcitol and/or arsenic trioxide of the indicated doses were added to the cells. […] (C) U937-PMT and PR9 cells were treated either with or without Zn and with paricalcitol, and/or arsenic trioxide as indicated for 3 days, and CD14 expression was measured by flow cytometry.
Western blot analysis was performed as follows: cells were washed twice in PBS, suspended in lysis buffer (50 mM Tris at pH 8.0, 150 mM NaCl, 0.1% SDS, 0.5% sodium deoxycholate, 1% Nonidet P-40, phenylmethylsulfonyl fluoride at 100 μg/mL, aprotinin at 2 μg/mL, pepstatin at 1 μg/mL, and leupetin at 10 μg/mL), and placed on ice for 30 minutes. […] Protein concentrations were quantitated by using the Bio-Rad protein Assay Dye Reagent Concentrate (Bio-Rad Laboratories, Hercules, Calif.) according to the manufacture's recommendation. […]

Compound	decrease of COX-2 expression [1] [%]	decrease of c-myc expression [1] [%]	decrease of cyclin D1 expression [1]	effect on COX-1 expression [1]	increase of E-cadherin [1]	increase of p21WAF1 protein level [1]	increase of p27KIP1 protein level [1] [fold]	time of exposure within which 24-hydroxylase mRNA expression was induced [2] [h]	number of total colonies (average) ([3]; VDR knock out mice, control 110)	percentage of granulocyte colonies ([3]; VDR knock-out mice, control 13±3%) [%]	percentage of macrophage colonies ([3]; VDR knock-out mice, control 30±8%) [%]	percentage of mixed colonies ([3]; VDR knock-out mice, control 56±10%) [%]	concentration at which PML-RARα protein expression was barely detectable ([4]; PR9 cells with zinc)	protein level of PML-RARa induced by zinc ([4]; PR9 cells, dose dependent)
C[C@H](/C=C/[C@H](C)C(C)(C)O)[C@H]1CC[C@H]2/C(=C/C=C3C[C@@H](O)C[C@H](O)C3)CCC[C@]12C [paricalcitol, 19-nor-1,25, (OH)2D3]	40	~40	about 50%	without affecting	about 6 fold	about 5 fold	~6	≤ 6	122	13±4	25±5	61±8	–	–
arsenic trioxide	–	–	–	–	–	–	–	–	–	–	–	–	over 0.4 μM	decreased the protein level of PML-RARa
